How the values were obtained:
[1] = molecular target: T1, human pancreatic cholesterol esterase (Homo sapiens, UniProt P19835); assay: Binding of 125I-cholesterol esterase to small intestine vesicles and its displacement
T1 construct: from tissue; host or cells: human pancreas (autopsy)
T1 sequence (P19835 21-753): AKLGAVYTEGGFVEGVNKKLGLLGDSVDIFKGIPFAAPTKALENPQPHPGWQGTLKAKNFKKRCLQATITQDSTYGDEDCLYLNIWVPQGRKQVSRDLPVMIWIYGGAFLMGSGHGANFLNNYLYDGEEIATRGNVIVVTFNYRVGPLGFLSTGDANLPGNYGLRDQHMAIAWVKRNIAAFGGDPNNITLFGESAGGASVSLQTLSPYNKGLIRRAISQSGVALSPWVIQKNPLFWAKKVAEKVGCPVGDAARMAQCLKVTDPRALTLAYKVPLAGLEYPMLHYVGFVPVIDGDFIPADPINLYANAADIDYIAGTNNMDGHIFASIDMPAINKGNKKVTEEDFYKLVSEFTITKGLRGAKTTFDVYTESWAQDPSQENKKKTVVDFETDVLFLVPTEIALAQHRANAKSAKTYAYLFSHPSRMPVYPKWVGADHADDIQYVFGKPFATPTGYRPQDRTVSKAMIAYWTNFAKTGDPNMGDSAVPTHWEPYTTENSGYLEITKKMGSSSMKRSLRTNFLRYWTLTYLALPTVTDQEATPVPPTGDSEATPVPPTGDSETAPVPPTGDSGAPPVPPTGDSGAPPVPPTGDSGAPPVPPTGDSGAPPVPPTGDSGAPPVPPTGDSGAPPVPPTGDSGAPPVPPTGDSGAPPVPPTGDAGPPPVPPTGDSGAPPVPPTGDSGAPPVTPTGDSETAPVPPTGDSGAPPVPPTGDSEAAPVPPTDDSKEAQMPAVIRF
Method: (§1) Vesicles contained 1.0 mg protein/ml, 30 ug total cholesterol/mg protein and 50 ug endogenous heparin/mg protein. ^125 I-cholesterol esterase (100K or 67K form) was added (0 to 400 pmol; 2,000 dpm/pmol) to 100 ug of protein of small intestine vesicles in 10 mM Tris-Cl, pH 7.2 for 15 min. at 37°. The concentration of offered ^125 I-cholesterol esterase varied between 10 nM and 1 uM. Experiments were performed utilizing 1% blotto to decrease nonspecific protein binding to the vesicles. After the 15 minute incubation at 37°, the reaction was quenched and the assay mixtures were filtered through wells of a Millipore system containing 0.2 micron pore filters presoaked in buffer. The filtrate was-collected to assess free (unbound) enzyme, and the filters were then immediately washed with 15 ml of cold buffer and counted for ^125 I. Total binding was defined as ^125 I-dpm bound to filter paper minus ^125 I-dpm detected in the same reaction without vesicles (background). Nonspecific binding (radioactivity bound to the vesicles in the presence of excess cold ligand) was quantitated as the amount of ^125 I-cholesterol esterase binding in the presence of a 1000-fold molar excess of unlabeled cholesterol esterase as described above. Specific binding is defined as the difference between total bound dpm and nonspecific-bound dpm (converted to moles bound by dividing by the SRA).

[2] = test system: human pancreatic cholesterol esterase; assay: as above
Method: as §1

[3] = molecular target: T2, human pancreatic triglyceride lipase (52 kDa) (Homo sapiens, UniProt P16233); assay: Triolein hydrolysis by human pancreatic triglyceride lipase (52 kDa); assay type: biochemical
T2 sequence (P16233 17-465): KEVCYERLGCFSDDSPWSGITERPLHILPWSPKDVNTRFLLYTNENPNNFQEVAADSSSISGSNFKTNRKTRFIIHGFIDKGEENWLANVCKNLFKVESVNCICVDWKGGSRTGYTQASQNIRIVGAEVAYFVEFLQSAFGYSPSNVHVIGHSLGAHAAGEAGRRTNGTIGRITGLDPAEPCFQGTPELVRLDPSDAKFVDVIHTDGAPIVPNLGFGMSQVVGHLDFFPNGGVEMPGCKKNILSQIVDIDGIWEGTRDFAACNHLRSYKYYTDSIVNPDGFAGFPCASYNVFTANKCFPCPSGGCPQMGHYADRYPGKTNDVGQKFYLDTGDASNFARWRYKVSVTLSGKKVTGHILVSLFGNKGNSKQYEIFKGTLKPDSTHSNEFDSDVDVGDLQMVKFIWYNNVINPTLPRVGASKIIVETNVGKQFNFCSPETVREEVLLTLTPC
Description: (§2) Human pancreatic cholesterol esterase (100 kDa) and human pancreatic triglyceride lipase (52 kDa) were purified to homogeneity (Examples 1 and 3), and their abilities to cleave triglycerides and cholesteryl esters were compared. […] Virtually the same results were found with cholesteryl esters; the 100 kDa enzyme cleaved cholesterol oleate at a rate at least 490-fold greater than that found for the 52 kDa triglyceride lipase.

[4] = molecular target: T3, human pancreatic cholesterol esterase (100 kDa) (Homo sapiens, UniProt P19835); assay: Triolein hydrolysis by human pancreatic cholesterol esterase (100 kDa); assay type: biochemical
T3 construct: from tissue; host or cells: human pancreas (autopsy)
T3 sequence (P19835 21-753): T1 sequence (P19835 21-753)
Description: as §2

[5] = test system: small intestine membrane vesicles (membrane-bound heparin); assay: Binding of 125I-labeled bovine pancreatic enzymes to small intestine membrane vesicles; details: 125I-labeled bovine pancreatic enzyme, 1% Blotto
Method: as §1, with “Exogenous heparin inhibits the interaction and binding of pancreatic choleserol esterase to small intestine vesicles prepared from proximal small intestine segments homogenized in 10 mM Tris-Cl, pH 7.2, and centrifuged at 48,000 X g for 45 minutes. Vesicles” for “Vesicles”, “After the 15 minute incubation at 37°, the reaction was quenched and the assay mixtures were filtered through wells of a Millipore system containing 0.2 micron pore filters presoaked in buffer.” left out, “Specific binding is defined as the difference between total bound dpm and nonspecific-bound dpm (converted to moles bound by dividing by the SRA).” left out

[6] = molecular target: T1, human pancreatic cholesterol esterase; assay: Elution of human pancreatic cholesterol esterase bound to heparin immobilized on Sepharose; assay type: binding; details: 5 mg/ml chondroitin sulfate
CaCo cells = assay: Cellular uptake of [14C]oleate from [14C]triolein; assay type: cell-based; details: at eight hours
Method: Confluent monolayers of 2×10^6 CaCo cells (Example 5b) were incubated with 2 mM taurocholate and with [^14 C]triolein (5 uM) embedded in phosphatidylcholine vesicles. In the absence of triglyceride lipase, cellular uptake of [^14 C] oleate was linear and at eight hours was 204 pmol. In the presence of human triglyceride lipase (25 nM) and colipase (400 nM), uptake was brisk, reaching 706 pmol at eight hours. Moreover, enzyme-mediated uptake was also dependent on the presence of colipase in the medium, since uptake was only 229 pmol at eight hours in its absence. Heparin (400 uM) added to medium containing triglyceride lipase and colipase reduced uptake from 706 pmol to 329 pmol at eight hours. Thus, heparin decreased cellular uptake of oleate (oleic acid) from cleaved triglyceride by 75%.

[7] = Cholesterol ester synthesis versus hydrolysis by the 52K form; assay type: biochemical, human
Method: Human pancreatic cholesterol esterase (52K form) can be isolated as follows. Cytosol prepared as above from 30 g pancreas is dialyzed versus 10 mM Tris-Cl, 50 mM benzamidine, pH 8.2 and then chromatographed over DEAE cellulose (2.6×25 cm). Unlike the higher molecular weight forms of cholesterol esterase which bind under these conditions, the 52K species rapidly passes through DEAE cellulose at pH 8.2, with a 40-fold purification and 80% yield. Subsequent chromatography over hydroxylapatite and heparin-Sepharose yields a homogeneous protein (SDS-PAGE, M.W.=52K) with enzymatic activity expressed principally in the synthetic direction for cholesterol esters (rate of synthesis/rate of hydrolysis=10/1). This species also cross-reacts in western blotting to anti-cholesterol esterase antibodies.

For `[Cl-].[Na+]` [NaCl, reference compound], the “displacement of cholesterol esterase from vesicles” value ([1]; 150 mM NaCl) was “ineffective”, the “effect on specific binding of 125I-cholesterol esterase to vesicles” value ([2]; isotonic saline) was “no effect” and the “inhibition of triolein hydrolysis by the 52 kDa enzyme” value ([3]; 0.15 M NaCl) was 68%. For the same molecule, the “effect on triolein hydrolysis by the 100 kDa esterase” value ([4]; 0.15 M NaCl) was “unaffected”.

In the case of “phospholipase A2: bovine pancreatic phospholipase A2 radiolabeled with Na125I”, the “binding to small intestine membrane vesicles / membrane-bound heparin” value [5] is reported as “do not bind”.

For chondroitin sulfate, the “elution of bound enzyme from heparin-Sepharose” value [6] was “completely ineffective”, the “displacement of cholesterol esterase from vesicles” value ([1]; 10 mg/ml chondroitin sulfate) was “ineffective” and the “decrease of specific binding of 125I-cholesterol esterase to vesicles” value ([2]; 0.5 to 100-fold molar excesses) was “less than 10%”.

B1: Human pancreatic cholesterol esterase (52K form): 52K protein isolated as in Example 3; called triglyceride lipase in Example 10 (protein, UniProt P16233 17-465, looked up)
Pancreatic triacylglycerol …: T2 sequence (P16233 17-465)
For B1, the “rate of triolein hydrolysis” value ([3]; homogeneous 52 kDa enzyme) was 27 nmol/hr/g pancreas, the “cellular uptake of [14C]oleate” value (CaCo cells; human triglyceride lipase 25 nM and colipase 400 nM) was 706 pmol and the “cellular uptake of [14C]oleate” value (CaCo cells; triglyceride lipase in the absence of colipase) was 229 pmol. The “rate of synthesis/rate of hydrolysis of cholesterol esters” value [7] was 10/1.

B2: colipase: cofactor protein added to triglyceride lipase (protein, UniProt P04118 23-112, looked up)
Colipase: GIIINLENGELCMNSAQCKSNCCQHSSALGLARCTSMASENSECSVKTLYGIYYKCPCERGLTCEGDKTIVGSITNTNFGICHDAGRSKQ
With B2 the “stimulation of triolein hydrolysis by the 52 kDa enzyme” value ([3]; 10-fold excess of colipase) was 375% and the “effect on triolein hydrolysis by the 100 kDa esterase” value ([4]; 50-fold molar excess of colipase) was “unaffected”.

From patent US5492822A, “Method for recovering purified 100,000 dalton molecular weight fraction of human pancreatic cholesterol esterase” (Lange, III; Louis G., priority 1995, dated 1996)
